Measurements from patent US12083124B2 (Incyte Corporation, priority 2019, dated 2024).
Where two headings read alike, the source gives them in different places.

Experiments:
[1] = molecular target: wild-type un-phosphorylated FGFR3 (Homo sapiens, UniProt P22607); experiment: FGFR Enzymatic Assay (FRET peptide phosphorylation), FGFR3
[2] = molecular target: wild-type un-phosphorylated FGFR1 (Homo sapiens, UniProt P11362); experiment: FGFR Enzymatic Assay (FRET peptide phosphorylation), FGFR1; details: pre-incubated for 4 hours
[3] = molecular target: wild-type un-phosphorylated FGFR4 (Homo sapiens, UniProt P22455); experiment: FGFR Enzymatic Assay (FRET peptide phosphorylation), FGFR4
[4] = molecular target: wild-type un-phosphorylated FGFR2 (Homo sapiens, UniProt P21802); experiment: FGFR Enzymatic Assay (FRET peptide phosphorylation), FGFR2
Method: The inhibitor potency of the exemplified compounds was determined in an enzyme discontinuous assay that measures peptide phosphorylation using FRET measurements to detect product formation. Inhibitors were serially diluted in DMSO and a volume of 0.2 μL was transferred to the wells of a 384-well plate. […] Appropriate controls (enzyme blank and enzyme with no inhibitor) were included on the plate. […] The 10 μL/well reaction concentration of the peptide substrate was 500 nM whereas the ATP concentration was maintained near or below the ATP Km. The ATP Km values were pre-determined in a separate series of experiments. The reaction plate was incubated at 25° C. for 1 hr and the reactions were ended with the addition of 5 μL/well of quench solution (50 mM Tris, 150 mM NaCl, 0.5 mg/mL BSA, pH 7.8; 45 mM EDTA, 600 nM staurosporin, with Perkin Elmer Lance Reagents at 3.75 nM Eu-antibody PY20 and 180 nM APC-Streptavidin). The plate was allowed to equilibrate for ˜10 minutes at ambient temperature before scanning on a PheraStar plate reader (BMG Labtech) instrument.
Either GraphPad prism or XLfit was used to analyze the data. The IC50 values were derived by fitting the data to a four parameter logistic equation producing a sigmoidal dose-response curve with a variable Hill coefficient. Prism equation: Y=Bottom+(Top-Bottom)/(1+10^((Log IC50-X)*Hill slope)); XLfit equation: Y=(A+((B−A)/(1+((X/C)^D)))) where X is the logarithm of inhibitor concentration and Y is the response.
GraphPad prism3 was used to analyze the data. The IC50 values were derived by fitting the data to the equation for a sigmoidal dose-response with a variable slope. Y=Bottom+(Top-Bottom)/(1+10^((Log IC50-X)*Hill Slope)) where X is the logarithm of concentration and Y is the response.
The data in Table 1 was measured in wild-type un-phosphorylated FGFR1, FGFR2, FGFR3, and FGFR4 proteins.

[5] = FGFR1, wild-type un-phosphorylated FGFR1
[6] = read-out: FGFR1, wild-type un-phosphorylated FGFR1
[7] = read-out: FGFR4, wild-type un-phosphorylated FGFR4, pre-incubated for 4 hours

Chain of wild-type un-phosphorylated FGFR3 (P22607 23-806): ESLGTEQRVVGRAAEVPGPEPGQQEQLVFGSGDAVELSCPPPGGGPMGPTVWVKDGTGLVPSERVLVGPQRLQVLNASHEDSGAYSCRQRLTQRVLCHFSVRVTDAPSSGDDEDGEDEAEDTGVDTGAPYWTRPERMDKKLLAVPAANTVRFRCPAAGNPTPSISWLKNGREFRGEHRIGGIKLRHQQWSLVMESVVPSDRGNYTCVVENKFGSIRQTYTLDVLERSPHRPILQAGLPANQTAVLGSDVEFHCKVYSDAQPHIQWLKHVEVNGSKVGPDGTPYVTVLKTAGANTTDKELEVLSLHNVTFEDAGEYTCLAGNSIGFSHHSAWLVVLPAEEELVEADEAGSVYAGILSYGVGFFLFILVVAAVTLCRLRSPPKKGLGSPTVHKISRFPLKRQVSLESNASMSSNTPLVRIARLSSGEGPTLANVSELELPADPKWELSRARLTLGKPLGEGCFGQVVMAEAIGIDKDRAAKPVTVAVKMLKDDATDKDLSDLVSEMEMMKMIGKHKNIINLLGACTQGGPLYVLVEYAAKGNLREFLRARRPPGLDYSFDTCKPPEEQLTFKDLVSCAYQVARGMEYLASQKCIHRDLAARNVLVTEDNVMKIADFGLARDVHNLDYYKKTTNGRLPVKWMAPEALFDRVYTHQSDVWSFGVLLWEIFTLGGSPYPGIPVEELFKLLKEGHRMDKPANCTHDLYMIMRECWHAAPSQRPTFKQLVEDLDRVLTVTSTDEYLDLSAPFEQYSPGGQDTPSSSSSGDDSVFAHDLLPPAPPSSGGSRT
Chain of wild-type un-phosphorylated FGFR4 (P22455 22-802): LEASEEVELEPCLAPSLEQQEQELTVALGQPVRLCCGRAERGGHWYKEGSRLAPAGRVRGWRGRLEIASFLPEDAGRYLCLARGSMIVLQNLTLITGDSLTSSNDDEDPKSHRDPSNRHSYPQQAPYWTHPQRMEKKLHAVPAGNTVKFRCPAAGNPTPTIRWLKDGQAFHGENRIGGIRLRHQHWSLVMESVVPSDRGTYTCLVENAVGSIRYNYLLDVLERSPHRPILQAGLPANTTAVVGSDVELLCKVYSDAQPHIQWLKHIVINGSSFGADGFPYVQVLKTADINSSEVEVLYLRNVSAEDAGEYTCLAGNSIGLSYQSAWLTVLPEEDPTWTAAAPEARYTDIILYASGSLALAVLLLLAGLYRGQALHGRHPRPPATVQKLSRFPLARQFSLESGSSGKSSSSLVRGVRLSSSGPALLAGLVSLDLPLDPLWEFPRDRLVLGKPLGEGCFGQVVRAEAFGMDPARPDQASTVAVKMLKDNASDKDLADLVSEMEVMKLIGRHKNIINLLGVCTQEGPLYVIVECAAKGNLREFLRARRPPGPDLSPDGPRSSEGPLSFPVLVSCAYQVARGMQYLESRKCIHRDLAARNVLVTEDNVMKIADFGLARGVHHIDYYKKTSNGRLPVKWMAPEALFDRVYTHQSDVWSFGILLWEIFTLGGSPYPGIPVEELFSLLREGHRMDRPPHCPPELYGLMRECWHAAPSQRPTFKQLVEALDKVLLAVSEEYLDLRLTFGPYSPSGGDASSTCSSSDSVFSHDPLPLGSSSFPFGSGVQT
Chain of wild-type un-phosphorylated FGFR1 (P11362 22-822): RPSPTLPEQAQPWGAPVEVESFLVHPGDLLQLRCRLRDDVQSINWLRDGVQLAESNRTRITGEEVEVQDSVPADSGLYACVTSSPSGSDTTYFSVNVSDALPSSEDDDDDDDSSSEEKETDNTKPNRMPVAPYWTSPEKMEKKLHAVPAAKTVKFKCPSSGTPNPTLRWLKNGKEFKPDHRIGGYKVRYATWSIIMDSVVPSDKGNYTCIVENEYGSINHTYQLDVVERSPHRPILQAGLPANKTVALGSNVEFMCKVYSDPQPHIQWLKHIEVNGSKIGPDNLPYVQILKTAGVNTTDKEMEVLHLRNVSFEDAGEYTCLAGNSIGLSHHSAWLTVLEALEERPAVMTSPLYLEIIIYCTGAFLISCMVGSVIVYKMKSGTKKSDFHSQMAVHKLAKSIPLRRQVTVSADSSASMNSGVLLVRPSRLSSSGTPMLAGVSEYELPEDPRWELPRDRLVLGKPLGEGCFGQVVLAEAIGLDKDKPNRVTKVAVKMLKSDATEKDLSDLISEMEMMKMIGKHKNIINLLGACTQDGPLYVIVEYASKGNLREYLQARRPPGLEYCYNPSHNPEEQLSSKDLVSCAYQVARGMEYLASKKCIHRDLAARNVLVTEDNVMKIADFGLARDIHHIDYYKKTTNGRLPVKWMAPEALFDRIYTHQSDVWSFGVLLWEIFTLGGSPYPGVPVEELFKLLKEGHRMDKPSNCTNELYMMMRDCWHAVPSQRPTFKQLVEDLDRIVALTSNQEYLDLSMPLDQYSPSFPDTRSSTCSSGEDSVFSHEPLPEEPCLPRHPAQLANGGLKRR
Chain of wild-type un-phosphorylated FGFR2 (P21802 22-821): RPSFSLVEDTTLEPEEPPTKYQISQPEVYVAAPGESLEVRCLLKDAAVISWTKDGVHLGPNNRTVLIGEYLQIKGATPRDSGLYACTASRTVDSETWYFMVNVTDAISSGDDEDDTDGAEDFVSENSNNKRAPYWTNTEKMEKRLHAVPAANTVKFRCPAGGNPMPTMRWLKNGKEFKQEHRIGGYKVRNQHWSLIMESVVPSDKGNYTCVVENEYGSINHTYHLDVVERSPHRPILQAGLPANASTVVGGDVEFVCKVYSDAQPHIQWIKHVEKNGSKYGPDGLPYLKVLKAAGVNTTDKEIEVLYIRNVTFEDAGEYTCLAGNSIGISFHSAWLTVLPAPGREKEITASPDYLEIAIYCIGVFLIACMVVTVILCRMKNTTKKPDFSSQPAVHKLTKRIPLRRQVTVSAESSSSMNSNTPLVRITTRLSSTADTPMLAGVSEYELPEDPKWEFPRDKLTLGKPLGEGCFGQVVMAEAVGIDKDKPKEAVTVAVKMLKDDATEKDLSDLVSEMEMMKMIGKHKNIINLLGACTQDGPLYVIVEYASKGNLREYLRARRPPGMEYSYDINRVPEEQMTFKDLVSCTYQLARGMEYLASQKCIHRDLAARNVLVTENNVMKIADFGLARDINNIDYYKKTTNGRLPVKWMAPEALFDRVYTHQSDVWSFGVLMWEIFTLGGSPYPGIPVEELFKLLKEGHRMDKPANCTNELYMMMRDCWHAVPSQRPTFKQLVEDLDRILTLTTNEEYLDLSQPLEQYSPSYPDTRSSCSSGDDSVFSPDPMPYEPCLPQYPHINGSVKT

Structure (SMILES) | IC50 [1] | IC50 [2, 5] | IC50 [3] | IC50 [4] | IC50 [2, 6] | IC50 [3, 7]
COc1cc2[nH]nc(-c3ccc(C4CN(C(=O)C5CCCO5)C4)nc3)c2nc1-c1cccc2c1CCC2 (stereo not shown) [Example 172, (3-(5-(5-(2,3-Dihydro-1H-inden-4-yl)-6-methoxy-1H-pyrazolo[4,3-b]pyridin-3-yl)pyridin-2-yl)azetidin-1-yl)(tetrahydrofuran-2-yl)methanone] | < 6 nM | 40 to 100 nM | 40 to 100 nM | < 6 nM |  | 
COc1cc2[nH]nc(-c3ccc(C4CN(C(=O)CN(C)C)C4)nc3)c2nc1-c1cccc2c1CCC2 [Example 174, 1-(3-(5-(5-(2,3-Dihydro-1H-inden-4-yl)-6-methoxy-1H-pyrazolo[4,3-b]pyridin-3-yl)pyridin-2-yl)azetidin-1-yl)-2-(dimethylamino)ethan-1-one] | < 6 nM |  | 40 to 100 nM | < 6 nM | 6 to 40 nM | 
COc1cc2[nH]nc(-c3ccc(C4CN(C(=O)CO)C4)nc3)c2nc1-c1cccc2c1CCC2 [Example 176, 1-(3-(5-(5-(2,3-Dihydro-1H-inden-4-yl)-6-methoxy-1H-pyrazolo[4,3-b]pyridin-3-yl)pyridin-2-yl)azetidin-1-yl)-2-hydroxyethan-1-one] | < 6 nM |  | 40 to 100 nM | < 6 nM | 6 to 40 nM | 
COC(=O)N1CCC(c2ccc(-c3n[nH]c4cc(OC)c(-c5cccc6c5CCC6C#N)nc34)cn2)CC1 (stereo not shown) [Example 180, Methyl 4-(5-(5-(1-Cyano-2,3-dihydro-1H-inden-4-yl)-6-methoxy-1H-pyrazolo[4,3-b]pyridin-3-yl)pyridin-2-yl)piperidine-1-carboxylate] | < 6 nM | 40 to 100 nM | 40 to 100 nM | < 6 nM |  | 
COCC(=O)N(C)C1CC(c2ccc(-c3n[nH]c4cc(OC)c(-c5cccc6c5CCC6)nc34)cn2)C1 (stereo not shown) [Example 188, N-(3-(5-(5-(2,3-Dihydro-1H-inden-4-yl)-6-methoxy-1H-pyrazolo[4,3-b]pyridin-3-yl)pyridin-2-yl)cyclobutyl)-2-methoxy-N-methylacetamide] | < 6 nM |  |  | < 6 nM | 6 to 40 nM | 6 to 40 nM
COc1cc2[nH]nc(-c3ccc(C4CC(N(C)C(=O)CCO)C4)nc3)c2nc1-c1cccc2c1CCC2 (stereo not shown) [Example 189, N-(3-(5-(5-(2,3-Dihydro-1H-inden-4-yl)-6-methoxy-1H-pyrazolo[4,3-b]pyridin-3-yl)pyridin-2-yl)cyclobutyl)-3-hydroxy-N-methylpropanamide] | < 6 nM |  |  | < 6 nM | 6 to 40 nM | 6 to 40 nM
COc1cc2[nH]nc(-c3ccc(C4CC(N(C)C(=O)[C@H](C)O)C4)nc3)c2nc1-c1cccc2c1CCC2 (stereo partly drawn) [Example 190, (S)-N-(3-(5-(5-(2,3-Dihydro-1H-inden-4-yl)-6-methoxy-1H-pyrazolo[4,3-b]pyridin-3-yl)pyridin-2-yl)cyclobutyl)-2-hydroxy-N-methylpropanamide] | < 6 nM |  | 40 to 100 nM | < 6 nM | 6 to 40 nM | 
COc1cc2[nH]nc(-c3ccc(C45CC4CN(C4CCOCC4)C5)nc3)c2nc1-c1cccc2c1CCC2 (stereo not shown) [Example 193, 5-(2,3-Dihydro-1H-inden-4-yl)-6-methoxy-3-(6-(3-(tetrahydro-2H-pyran-4-yl)-3-azabicyclo[3.1.0]hexan-1-yl)pyridin-3-yl)-1H-pyrazolo[4,3-b]pyridine] | < 6 nM |  |  | < 6 nM | 6 to 40 nM | 6 to 40 nM
COc1cc2[nH]nc(-c3ccc(C45CC4CN(CCO)C5)nc3)c2nc1-c1cccc2c1CCC2 (stereo not shown) [Example 194A, 2-(1-(5-(5-(2,3-Dihydro-1H-inden-4-yl)-6-methoxy-1H-pyrazolo[4,3-b]pyridin-3-yl)pyridin-2-yl)-3-azabicyclo[3.1.0]hexan-3-yl)ethan-1-ol] | < 6 nM |  |  | < 6 nM | 6 to 40 nM | 6 to 40 nM

The remaining lines, values ahead:

IC50 [1] | IC50 [2, 5] | IC50 [3] | IC50 [4] | IC50 [2, 6] | IC50 [3, 7] | Structure (SMILES)
< 6 nM |  |  | < 6 nM | 6 to 40 nM | 6 to 40 nM | COc1cc2[nH]nc(-c3ccc(C4CN(C(=O)[C@@H]5CCCCN5C)C4)nc3)c2nc1-c1cccc2c1CCC2 [Example 173, (S)-(3-(5-(5-(2,3-Dihydro-1H-inden-4-yl)-6-methoxy-1H-pyrazolo[4,3-b]pyridin-3-yl)pyridin-2-yl)azetidin-1-yl)(1-methylpiperidin-2-yl)methanone]
< 6 nM |  |  | < 6 nM | 6 to 40 nM | 6 to 40 nM | COc1cc2[nH]nc(-c3ccc(C4CN(C(=O)CCO)C4)nc3)c2nc1-c1cccc2c1CCC2 [Example 175, 1-(3-(5-(5-(2,3-Dihydro-1H-inden-4-yl)-6-methoxy-1H-pyrazolo[4,3-b]pyridin-3-yl)pyridin-2-yl)azetidin-1-yl)-3-hydroxypropan-1-one]
< 6 nM | 40 to 100 nM | 40 to 100 nM | < 6 nM |  |  | COc1cc2[nH]nc(-c3ccc(C4CN(C(=O)[C@H](C)O)C4)nc3)c2nc1-c1cccc2c1CCC2 [Example 177, (S)-1-(3-(5-(5-(2,3-Dihydro-1H-inden-4-yl)-6-methoxy-1H-pyrazolo[4,3-b]pyridin-3-yl)pyridin-2-yl)azetidin-1-yl)-2-hydroxypropan-1-one]
< 6 nM |  |  | < 6 nM | 6 to 40 nM | 6 to 40 nM | COc1cc2[nH]nc(-c3ccc(C4CC(N(C)C(=O)CO)C4)nc3)c2nc1-c1cccc2c1CCC2 (stereo not shown) [Example 178, N-(3-(5-(5-(2,3-Dihydro-1H-inden-4-yl)-6-methoxy-1H-pyrazolo[4,3-b]pyridin-3-yl)pyridin-2-yl)cyclobutyl)-2-hydroxy-N-methylacetamide]
< 6 nM |  |  | < 6 nM | 6 to 40 nM | 6 to 40 nM | [2H]C1(c2ccc(-c3n[nH]c4cc(OC)c(-c5cccc6c5CCC6)nc34)cn2)CN(C(=O)CO)C1 [Example 179, 1-(3-(5-(5-(2,3-Dihydro-1H-inden-4-yl)-6-methoxy-1H-pyrazolo[4,3-b]pyridin-3-yl)pyridin-2-yl)azetidin-1-yl-3-d)-2-hydroxyethan-1-one]
< 6 nM |  |  | < 6 nM | 6 to 40 nM | 6 to 40 nM | COc1cc2[nH]nc(-c3ccc(C4CN(CCC#N)C4)nc3)c2nc1-c1cccc2c1CCC2 [Example 187, 3-(3-(5-(5-(2,3-Dihydro-1H-inden-4-yl)-6-methoxy-1H-pyrazolo[4,3-b]pyridin-3-yl)pyridin-2-yl)azetidin-1-yl)propanenitrile]
< 6 nM |  |  | < 6 nM | 6 to 40 nM | 6 to 40 nM | COc1cc2[nH]nc(-c3ccc(C45CC4CN(C(=O)CO)C5)nc3)c2nc1-c1cccc2c1CCC2 (stereo not shown) [Example 191A, 1-(1-(5-(5-(2,3-Dihydro-1H-inden-4-yl)-6-methoxy-1H-pyrazolo[4,3-b]pyridin-3-yl)pyridin-2-yl)-3-azabicyclo[3.1.0]hexan-3-yl)-2-hydroxyethan-1-one]
< 6 nM |  | 40 to 100 nM | < 6 nM | 6 to 40 nM |  | COc1cc2[nH]nc(-c3ccc(C4(C#N)CCN(C(=O)CO)C4)nc3)c2nc1-c1cccc2c1CCC2 (stereo not shown) [Example 198, 3-(5-(5-(2,3-Dihydro-1H-inden-4-yl)-6-methoxy-1H-pyrazolo[4,3-b]pyridin-3-yl)pyridin-2-yl)-1-(2-hydroxyacetyl)pyrrolidine-3-carbonitrile]
< 6 nM | 40 to 100 nM | 40 to 100 nM | < 6 nM |  |  | COc1cc2[nH]nc(-c3ccc(CN4CCN(C)C(=O)[C@@H]4C)nc3)c2nc1-c1cccc2c1CCC2 [Example 199, (S)-4-((5-(5-(2,3-Dihydro-1H-inden-4-yl)-6-methoxy-1H-pyrazolo[4,3-b]pyridin-3-yl)pyridin-2-yl)methyl)-1,3-dimethylpiperazin-2-one]
< 6 nM | 40 to 100 nM | 40 to 100 nM | < 6 nM |  |  | COc1cc2[nH]nc(-c3ccc(CN4C[C@H]5C[C@@H]4CO5)nc3)c2nc1-c1cccc2c1CCC2 [Example 200, (1R,4R)-5-((5-(5-(2,3-Dihydro-1H-inden-4-yl)-6-methoxy-1H-pyrazolo[4,3-b]pyridin-3-yl)pyridin-2-yl)methyl)-2-oxa-5-azabicyclo[2.2.1]heptane]
